Measurements as given in ChEMBL document CHEMBL4130444, “1,4-Naphthoquinones as inhibitors of Itch, a HECT domain-E3 ligase, and tumor growth suppressors in multiple myeloma” (Eur J Med Chem, 2017).

What was measured:
HCT-116 = experiment: Antiproliferative activity against human HCT116 cells incubated for 48 hrs by SRB assay; assay type: functional; conditions: HCT-116, 48 h
MDA-MB-231 = experiment: Antiproliferative activity against human MDA-MB-231 cells incubated for 48 hrs by SRB assay; assay type: functional; conditions: MDA-MB-231, 48 h

| GI50 (HCT-116) | GI50 (MDA-MB-231) | SMILES |
| --- | --- | --- |
| > 10 µM | > 10 µM | O=C(Nc1nccs1)c1ccc(CNC2=C(Cl)C(=O)c3ccccc3C2=O)cc1 |
| > 10 µM | > 10 µM | O=C(Nc1ccccn1)c1ccc(CNC2=C(Cl)C(=O)c3ccccc3C2=O)cc1 |
| > 10 µM | > 10 µM | O=C(Nc1cccc2[nH]ccc12)c1ccc(CNC2=C(Cl)C(=O)c3ccccc3C2=O)cc1 |
| > 10 µM | > 10 µM | O=C(Nc1ccc2cn[nH]c2c1)c1ccc(CNC2=C(Cl)C(=O)c3ccccc3C2=O)cc1 |
